Where two headings read alike, the source gives them in different places.
Columns and labels:
[1] = target: T1, complement C5a receptor 1 (C5aR1) (Homo sapiens, UniProt P21730); experiment: β-arrestin recruitment via C5aR1 activation in live CHO-K1 cells (PathHunter), antagonist mode; assay type: cell-based
T1 construct: β-galactosidase fragment (PathHunter enzyme complementation); host or cells: CHO-K1 (PathHunter CHO-K1 C5aR1 β-arrestin cell line)
T1 sequence (P21730 1-350): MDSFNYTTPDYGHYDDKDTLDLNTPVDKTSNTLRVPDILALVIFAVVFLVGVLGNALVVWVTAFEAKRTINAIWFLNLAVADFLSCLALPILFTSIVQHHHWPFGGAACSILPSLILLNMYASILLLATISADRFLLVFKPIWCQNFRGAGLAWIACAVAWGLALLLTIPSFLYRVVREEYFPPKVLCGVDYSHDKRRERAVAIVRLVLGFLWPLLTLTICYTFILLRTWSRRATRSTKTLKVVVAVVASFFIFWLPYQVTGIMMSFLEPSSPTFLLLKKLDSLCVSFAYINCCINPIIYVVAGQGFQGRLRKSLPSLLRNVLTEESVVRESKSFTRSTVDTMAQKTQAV
In short: (§1)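 Live CHO-K1 cells carry two galactosidase enzyme fragments, one fused to β-arrestin and one to C5aR1, so that β-arrestin recruitment restores enzyme activity. Agonist mode tests compounds alone. Antagonist mode tests them against recombinant hC5a at EC90, and IC50 values are reported in binned ranges.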

[2] = target: T1, complement C5a receptor 1 (C5aR1); experiment: β-arrestin recruitment via C5aR1 activation in live CHO-K1 cells (PathHunter), agonist mode; assay type: cell-based
In short: as §1

[3] = antagonist mode, recombinant hC5a (EC90) as competing natural agonist, live CHO-K1 cells, read-out: [Antagonist] B-arrestin2 recruitment: Average IC50

| Compound | IC50 [1, 3] | [Agonist] B-arrestin2 recruitment: Average EC50 (nM) [2] | IC50 [1] |
| --- | --- | --- | --- |
| COc1ccnc(F)c1N1CCC(c2cc3nccnc3n(Cc3ccccc3C(F)(F)F)c2=O)CC1 [compound 33, 7-(1-(2-Fluoro-4-methoxypyridin-3-yl)piperidin-4-yl)-5-(2-(trifluoromethyl)benzyl)pyrido[2,3-b]pyrazin-6(5H)-one] | 0.5 to 5 µM | Non-Active | – |
| O=c1c(C2CCN(c3nccnc3F)CC2)cc2nccnc2n1Cc1ccccc1C(F)(F)F [compound 34, 7-(1-(3-Fluoropyrazin-2-yl)piperidin-4-yl)-5-(2-(trifluoromethyl)benzyl)pyrido[2,3-b]pyrazine-6(5H)-one] | > 100 µM | Non-Active | – |
| Cc1cccc(F)c1N1CCC(c2cc3nccnc3n(Cc3ccccc3F)c2=O)CC1 [compound 35, 7-(1-(2-Fluoro-6-methylphenyl)piperidin-4-yl)-5-(2-fluorobenzyl)pyrido[2,3-b]pyrazin-6(5H)-one] | < 0.5 µM | Non-Active | – |
| Cc1cccc(F)c1N1CCC(n2c(=O)c3ccccc3n(Cc3ncccc3C(F)(F)F)c2=O)CC1 [compound 36, 3-(1-(2-Fluoro-6-methylphenyl)piperidin-4-yl)-1-((3-(trifluoromethyl)pyridin-2-yl)methyl)quinazoline-2,4(1H,3H)-dione] | 0.5 to 5 µM | Non-Active | – |
| Cc1cccc(F)c1N1CCC(n2c(=O)c3nccnc3n(Cc3nccnc3C(F)(F)F)c2=O)CC1 [compound 37, 3-(1-(2-Fluoro-6-methylphenyl)piperidin-4-yl)-1-((3-(trifluoromethyl)pyrazin-2-yl)methyl)pteridine-2,4(1H,3H)-dione] | 5 to 100 µM | Non-Active | – |
| Cc1cccc(F)c1N1CCC(c2nc3nccnc3n(Cc3ccccc3C(F)(F)F)c2=O)CC1 [compound 39, 3-(1-(2-Fluoro-6-methylphenyl)piperidin-4-yl)-1-(2-(trifluoromethyl)benzyl)pyrazino[2,3-b]pyrazin-2(1H)-one] | – | Non-Active | 0.5 to 5 µM |
| Cc1ncc(F)cc1N1CCC(c2cc3nccnc3n(Cc3nccnc3C(F)(F)F)c2=O)CC1 [compound 45, 7-(1-(5-Fluoro-2-methylpyridin-3-yl)piperidin-4-yl)-5-((3-(trifluoromethyl)pyrazin-2-yl)methyl)pyrido[2,3-b]pyrazin-6(5H)-one] | > 100 µM | Non-Active | – |
| Cc1cccc(F)c1N1CCC(c2nc3nccnc3n(Cc3ccccc3OC(F)F)c2=O)CC1 [compound 46, 1-(2-(difluoromethoxy)benzyl)-3-(1-(2-fluoro-6-methylphenyl)piperidin-4-yl)pyrazino[2,3-b]pyrazin-2(1H)-one] | 0.5 to 5 µM | Non-Active | – |
| Cc1ncc2cc(C3CCN(c4c(C)cccc4F)CC3)c(=O)n(Cc3nccnc3C(F)(F)F)c2n1 [compound 47, 6-(1-(2-Fluoro-6-methylphenyl)piperidin-4-yl)-2-methyl-8-((3-(trifluoromethyl)pyrazin-2-yl)methyl)pyrido[2,3-d]pyrimidin-7(8H)-one] | 0.5 to 5 µM | Non-Active | – |
| Cc1cnc2c(=O)n(C3CCN(c4c(C)cccc4F)CC3)c(=O)n(Cc3ncccc3C(F)(F)F)c2n1 [compound 50, 3-(1-(2-Fluoro-6-methylphenyl)piperidin-4-yl)-7-methyl-1-((3-(trifluoromethyl)pyridin-2-yl)methyl)pteridine-2,4(1H,3H)-dione] | 0.5 to 5 µM | Non-Active | – |
| CCOc1ncc2cc(C3CCN(c4c(C)cccc4F)CC3)c(=O)n(Cc3nccnc3C(F)(F)F)c2n1 [compound 51, 2-Ethoxy-6-(1-(2-fluoro-6-methylphenyl)piperidin-4-yl)-8-((3-(trifluoromethyl)pyrazin-2-yl)methyl)pyrido[2,3-d]pyrimidin-7(8H)-one] | 0.5 to 5 µM | Non-Active | – |

The next lines start with the values.

| IC50 [1, 3] | [Agonist] B-arrestin2 recruitment: Average EC50 (nM) [2] | IC50 [1] | Compound |
| --- | --- | --- | --- |
| 0.5 to 5 µM | Non-Active | – | Cc1cccc(F)c1N1CCN(c2cc3nccnc3n(Cc3nccnc3C(F)(F)F)c2=O)CC1 [compound 24, 7-(4-(2-Fluoro-6-methylphenyl)piperazin-1-yl)-5-((3-(trifluoromethyl)pyrazin-2-yl)methyl)pyrido[2,3-b]pyrazin-6(5H)-one] |
| < 0.5 µM | Non-Active | – | Cc1cnc2cc(C3CCN(c4c(C)cccc4F)CC3)c(=O)n(Cc3nccnc3C(F)(F)F)c2n1 [compound 25, 7-(1-(2-Fluoro-6-methylphenyl)piperidin-4-yl)-3-methyl-5-((3-(trifluoromethyl)pyrazin-2-yl)methyl)pyrido[2,3-b]pyrazin-6(5H)-one] |
| 0.5 to 5 µM | Non-Active | – | Cc1cnc(F)cc1N1CCC(c2cc3nccnc3n(Cc3ccccc3C(F)(F)F)c2=O)CC1 [compound 26, 7-(1-(2-fluoro-5-methylpyridin-4-yl)piperidin-4-yl)-5-(2-(trifluoromethyl)benzyl)pyrido-[2,3-b]pyrazin-6(5H)-one] |
| – | Non-Active | > 100 µM | Cc1cccc(F)c1N1CCC(c2cc3nccnc3n(Cc3cnc(C(F)(F)F)cn3)c2=O)CC1 [compound 27, 7-(1-(2-Fluoro-6-methylphenyl)piperidin-4-yl)-5-((5-(trifluoromethyl)pyrazin-2-yl)methyl)pyrido[2,3-b]pyrazin-6(5H)-one] |
| 5 to 100 µM | Non-Active | – | Cc1cccc(F)c1N1CCC(c2cc3cncnc3n(Cc3nccnc3C(F)(F)F)c2=O)CC1 [compound 28, 6-(1-(2-fluoro-6-methylphenyl)piperidin-4-yl)-8-((3-(trifluoromethyl)pyrazin-2-yl)methyl)pyrido[2,3-d]pyrimidin-7(8H)-one] |
| 5 to 100 µM | Non-Active | – | Cc1c(N2CCC(c3cc4nccnc4n(Cc4ccccc4C(F)(F)F)c3=O)CC2)ccnc1F [compound 29, 7-(1-(2-Fluoro-3-methylpyridin-4-yl)piperidin-4-yl)-5-(2-(trifluoromethyl)benzyl)pyrido-[2,3-b]pyrazin-6(5H)-one] |
| – | Non-Active | 5 to 100 µM | Cc1cccc(F)c1N1CCC(c2cc3nccnc3n(Cc3cncc(C(F)(F)F)n3)c2=O)CC1 [compound 30, 7-(1-(2-Fluoro-6-methylphenyl)piperidin-4-yl)-5-((6-(trifluoromethyl)pyrazin-2-yl)methyl)pyrido[2,3-b]pyrazin-6(5H)-one] |
| < 0.5 µM | Non-Active | – | Cc1ccnc(F)c1N1CCC(c2cc3nccnc3n(Cc3ccccc3C(F)(F)F)c2=O)CC1 [compound 31, 7-(1-(2-Fluoro-4-methylpyridin-3-yl)piperidin-4-yl)-5-(2-(trifluoromethyl)benzyl)pyrido[2,3-b]pyrazin-6(5H)-one] |
| < 0.5 µM | Non-Active | – | Cc1cc(F)ncc1N1CCC(c2cc3nccnc3n(Cc3ccccc3C(F)(F)F)c2=O)CC1 [compound 32, 7-(1-(6-Fluoro-4-methylpyridin-3-yl)piperidin-4-yl)-5-(2-(trifluoromethyl)benzyl)pyrido-[2,3-b]pyrazin-6(5H)-one] |
| < 0.5 µM | Non-Active | – | O=c1c(C2CCN(c3ccccc3C(F)(F)F)CC2)cc2nccnc2n1Cc1ncccc1C(F)(F)F [compound 38, 7-(1-(2-(Trifluoromethyl)phenyl)piperidin-4-yl)-5-((3-(trifluoromethyl)pyridin-2-yl)methyl)pyrido[2,3-b]pyrazin-6(5H)-one] |
| < 0.5 µM | Non-Active | – | Cc1cnc2cc(C3CCN(c4c(C)cccc4F)CC3)c(=O)n(Cc3ncccc3C(F)(F)F)c2n1 [compound 41, 7-(1-(2-Fluoro-6-methylphenyl)piperidin-4-yl)-3-methyl-5-((3-(trifluoromethyl)pyridin-2-yl)methyl)pyrido[2,3-b]pyrazin-6(5H)-one] |
| 0.5 to 5 µM | Non-Active | – | Cc1cccc(F)c1N1CCC(n2c(=O)c3nccnc3n(Cc3ncccc3C(F)(F)F)c2=O)CC1 [compound 42, 3-(1-(2-Fluoro-6-methylphenyl)piperidin-4-yl)-1-((3-(trifluoromethyl)pyridin-2-yl)methyl)pteridine-2,4(1H,3H)-dione] |
| > 100 µM | Non-Active | – | Cc1ncc(F)cc1N1CCC(c2cc3nccnc3n(Cc3ncccc3C(F)(F)F)c2=O)CC1 [compound 44, 7-(1-(5-Fluoro-2-methylpyridin-3-yl)piperidin-4-yl)-5-((3-(trifluoromethyl)pyridin-2-yl)methyl)pyrido[2,3-b]pyrazin-6(5H)-one] |
| 0.5 to 5 µM | Non-Active | – | Cc1cccc(F)c1N1CC(c2cc3nccnc3n(Cc3ncccc3C(F)(F)F)c2=O)C1 [compound 48, 7-(1-(2-Fluoro-6-methylphenyl)azetidin-3-yl)-5-((3-(trifluoromethyl)pyridin-2-yl)methyl)pyrido[2,3-b]pyrazin-6(5H)-one] |

Reference: US20260317320A1, “C5AR1 ANTAGONISTS AND USES THEREOF” (Vanqua Bio, Inc., priority 2022, published 2026)
